Active and inactive are the calls of the source.
Legend:
Escherichia coli = assay: Antibacterial activity against Escherichia coli ATCC 11775 assessed as reduction In microbial growth up to 30 uM after 24 hrs by spectrophotometric method; assay type: functional, organism-based
SW-620 = assay: Cytotoxicity against human SW620 cells assessed as reduction in cell viability up to 30 uM after 48 hrs by MTT assay; assay type: functional, cell-based
Bacillus subtilis = assay: Antibacterial activity against Bacillus subtilis ATCC 6051 assessed as reduction In microbial growth up to 30 uM after 24 hrs by spectrophotometric method; assay type: functional, organism-based
NCI-H460 = assay: Cytotoxicity against human NCI-H460 cells assessed as reduction in cell viability up to 30 uM uM after 48 hrs by MTT assay; assay type: functional, cell-based
Candida albicans = assay: Antifungal activity against Candida albicans ATCC 10231 assessed as reduction In microbial growth up to 30 uM after 24 hrs by spectrophotometric method; assay type: functional, organism-based

Measured: Activity

CC1(C)CCC[C@]2(C)C3=C(CC[C@@H]12)C(=O)N(CC(=O)O)[C@H]3O
inactive: all assays above

CC1(C)CCC[C@]2(C)C3=C(CC[C@@H]12)C(O)OC3=O (stereo not given in full)
inactive: all assays above

CC1(C)CCC[C@]2(C)C3=C(CC[C@@H]12)C(=O)N(CC(=O)O)[C@@H]3O
inactive: all assays above

CC1(C)CCC[C@]2(C)C3=C(CC[C@@H]12)CN(CC(=O)O)C3=O
inactive: all assays above

CC1(C)CCC[C@]2(C)C3=C(CC[C@@H]12)C(=O)N(CC(=O)O)C3=O
inactive: all assays above

CC1(C)CCC[C@]2(C)C3=C(CC[C@@H]12)C(=O)NC3=O
inactive: all assays above

CC1(C)CCC[C@]2(C)C3=C(CC[C@@H]12)C(=O)OC3O (stereo not given in full)
inactive: all assays above

CCO[C@H]1C2=C(CC[C@H]3C(C)(C)CCC[C@]23C)C(=O)N1CC(=O)O
inactive: all assays above

CC1(C)CCC[C@]2(C)C3=C(CC[C@@H]12)C(=O)N(CC(=O)O)C3
inactive: all assays above

CCO[C@@H]1C2=C(CC[C@H]3C(C)(C)CCC[C@]23C)C(=O)N1CC(=O)O
inactive: all assays above

From ChEMBL document CHEMBL4616645, “Dysidealactams and Dysidealactones: Sesquiterpene Glycinyl-Lactams, Imides, and Lactones from a Dysidea sp. Marine Sponge Collected in Southern Australia” (J Nat Prod, 2020)
